≈ marks a conversion by molar mass, not a printed value.
Key:
Type in all cases: functional
[1] = test system: Stenotrophomonas maltophilia; assay: Antibacterial activity against Stenotrophomonas maltophilia MBS101 containing plasmid encoded Smqnr gene by epsilon test
[2] = test system: Stenotrophomonas maltophilia; assay: Antibacterial activity against Stenotrophomonas maltophilia D457 containing chromosomally encoded Smqnr gene by epsilon test
[3] = test system: Stenotrophomonas maltophilia; assay: Antibacterial activity against Stenotrophomonas maltophilia MBS100 deficient in Smqnr gene by epsilon test
[4] = test system: Stenotrophomonas maltophilia; assay: Antibacterial activity against Stenotrophomonas maltophilia MBS82 deficient in Smqnr gene by epsilon test
[5] = test system: Stenotrophomonas maltophilia; assay: Antibacterial activity against Stenotrophomonas maltophilia MBS108 containing both chromosomally and plasmid encoded Smqnr gene by epsilon test
[6] = test system: Stenotrophomonas maltophilia; assay: Antibacterial activity against Stenotrophomonas maltophilia MBS109 containing chromosomally encoded Smqnr gene by epsilon test

| MIC [1] | MIC [2] | MIC [3] | MIC [4] | MIC [5] | MIC [6] | SMILES |
| --- | --- | --- | --- | --- | --- | --- |
| 0.75 µg/mL (≈ 2 µM) | 0.25 µg/mL (≈ 0.666 µM) | 0.125 µg/mL (≈ 0.333 µM) | 0.125 µg/mL (≈ 0.333 µM) | 0.75 µg/mL (≈ 2 µM) | 0.25 µg/mL (≈ 0.666 µM) | COc1c(N2CCNC(C)C2)c(F)cc2c(=O)c(C(=O)O)cn(C3CC3)c12 (stereo not drawn) [GATIFLOXACIN] |
| 0.75 µg/mL (≈ 1.87 µM) | 0.19 µg/mL (≈ 0.473 µM) | 0.064 µg/mL (≈ 0.159 µM) | 0.064 µg/mL (≈ 0.159 µM) | 0.75 µg/mL (≈ 1.87 µM) | 0.19 µg/mL (≈ 0.473 µM) | COc1c(N2C[C@@H]3CCCN[C@@H]3C2)c(F)cc2c(=O)c(C(=O)O)cn(C3CC3)c12 [MOXIFLOXACIN] |
| 1 µg/mL | 0.5 µg/mL | 0.25 µg/mL | 0.25 µg/mL | 1 µg/mL | 0.5 µg/mL | C[C@H]1COc2c(N3CCN(C)CC3)c(F)cc3c(=O)c(C(=O)O)cn1c23.C[C@H]1COc2c(N3CCN(C)CC3)c(F)cc3c(=O)c(C(=O)O)cn1c23.O [LEVOFLOXACIN] |
| 3 µg/mL (≈ 8.3 µM) | 1 µg/mL (≈ 2.77 µM) | 0.5 µg/mL (≈ 1.38 µM) | 0.5 µg/mL (≈ 1.38 µM) | 3 µg/mL (≈ 8.3 µM) | 1 µg/mL (≈ 2.77 µM) | CC1COc2c(N3CCN(C)CC3)c(F)cc3c(=O)c(C(=O)O)cn1c23 (stereo not drawn) [OFLOXACIN] |

| SMILES | MIC [1] | MIC [2] | MIC [3] | MIC [4] | MIC [5] | MIC [6] |
| --- | --- | --- | --- | --- | --- | --- |
| O=C(O)c1cn(C2CC2)c2cc(N3CCNCC3)c(F)cc2c1=O [CIPROFLOXACIN] | 2 µg/mL (≈ 6.04 µM) | 0.75 µg/mL (≈ 2.26 µM) |  |  | 2 µg/mL (≈ 6.04 µM) | 0.75 µg/mL (≈ 2.26 µM) |

From ChEMBL document CHEMBL1212754, “SmQnr contributes to intrinsic resistance to quinolones in Stenotrophomonas maltophilia” (2010)
